# Organism: Rattus norvegicus
# Test: Open TG-GATES - Regimen: Single
# Assay type: toxicity, organism-based, Sprague-Dawley
# Parameters: regimen Single, gender Male, age 6 weeks
# Settings: in vivo, po, 0 mg/kg, route gavage, dose level Control; for APTT / Bas / Eos / Fbg / Hb / Lym / MCH / MCHC / MCV / Mono / Neu / PT / RBC / Ret / WBC: tissue Blood; for KIDNEY_L / KIDNEY_R / KIDNEY_TOTAL: tissue Kidney; for ALT / AST / CRE / DBIL / IP / K / LDH / Na / RALB / TBIL / TC / TG / TP / gamma-GTP / ALP: tissue Plasma
smiles,measurement,setting,value
Cc1cnc(NC(=O)C2=C(O)c3ccccc3S(=O)(=O)N2C)s1 [MELOXICAM],TERMINAL_BW,3 h,226.2 g
same,APTT,3 h,17.9 s
same,Bas,3 h,0.4%
same,Eos,3 h,1%
same,Fbg,3 h,222.8 mg/dL
same,Hb,3 h,13.4 g/dL
same,Lym,3 h,78.6%
same,MCH,3 h,21.2 pg
same,MCHC,3 h,34.1%
same,MCV,3 h,62.3 fL
same,Mono,3 h,2%
same,Neu,3 h,17.6%
same,PT,3 h,11.8 s
same,RBC,3 h,633.2 x10_4/ul
same,Ret,3 h,7%
same,WBC,3 h,78.8 x10_2/uL
same,KIDNEY_L,3 h,1 g
same,KIDNEY_R,3 h,1 g
same,KIDNEY_TOTAL,3 h,2 g
same,ALT,3 h,37.6 IU/L
same,AST,3 h,68 IU/L
same,CRE,3 h,0.4 mg/dL
same,DBIL,3 h,0.06 mg/dL
same,IP,3 h,9.3 mg/dL
same,K,3 h,3.7 meq/L
same,LDH,3 h,149.4 IU/L
same,Na,3 h,141.4 meq/L
same,RALB,3 h,3.4 g/dL
same,TBIL,3 h,0.1 mg/dL
same,TC,3 h,79.6 mg/dL
same,TG,3 h,61.6 mg/dL
same,TP,3 h,5.4 g/dL
same,gamma-GTP,3 h,1 IU/L
same,TERMINAL_BW,6 h,224.5 g
same,Bas,6 h,0.6%
same,Eos,6 h,0.6%
same,Fbg,6 h,235.8 mg/dL
same,Lym,6 h,75.2%
same,MCH,6 h,21.8 pg
same,MCHC,6 h,33.8%
same,MCV,6 h,64.4 fL
same,Mono,6 h,3.2%
same,Neu,6 h,19.8%
same,PT,6 h,12.6 s
same,RBC,6 h,625.4 x10_4/ul
same,Ret,6 h,7.3%
same,WBC,6 h,110.7 x10_2/uL
same,KIDNEY_L,6 h,1 g
same,KIDNEY_R,6 h,1 g
same,KIDNEY_TOTAL,6 h,2 g
same,ALP,6 h,739.4 IU/L
same,ALT,6 h,31.4 IU/L
same,AST,6 h,61.6 IU/L
same,CRE,6 h,0.3 mg/dL
same,DBIL,6 h,0.066 mg/dL
same,IP,6 h,9.5 mg/dL
same,K,6 h,3.9 meq/L
same,LDH,6 h,153 IU/L
same,Na,6 h,141.4 meq/L
same,RALB,6 h,3.3 g/dL
same,TBIL,6 h,0.1 mg/dL
same,TC,6 h,74.8 mg/dL
same,TG,6 h,55.2 mg/dL
same,TP,6 h,5.4 g/dL
same,gamma-GTP,6 h,0.8 IU/L
same,TERMINAL_BW,9 h,222.3 g
same,APTT,9 h,17.6 s
same,Bas,9 h,0.2%
same,Eos,9 h,1%
same,Fbg,9 h,233.2 mg/dL
same,Hb,9 h,13.5 g/dL
same,Lym,9 h,72.4%
same,MCH,9 h,22.1 pg
same,MCHC,9 h,34.1%
same,MCV,9 h,64.8 fL
same,Mono,9 h,3%
same,Neu,9 h,22.4%
same,PT,9 h,12.6 s
same,RBC,9 h,610.8 x10_4/ul
same,Ret,9 h,7.2%
same,WBC,9 h,88.3 x10_2/uL
same,KIDNEY_L,9 h,1 g
same,KIDNEY_R,9 h,1 g
same,KIDNEY_TOTAL,9 h,2.1 g
same,ALP,9 h,910.8 IU/L
same,ALT,9 h,29.6 IU/L
same,AST,9 h,62.6 IU/L
same,CRE,9 h,0.4 mg/dL
same,DBIL,9 h,0.068 mg/dL
same,IP,9 h,9.5 mg/dL
same,K,9 h,4 meq/L
same,LDH,9 h,153.2 IU/L
same,Na,9 h,141.6 meq/L
same,RALB,9 h,3.4 g/dL
same,TBIL,9 h,0.1 mg/dL
same,TC,9 h,70.6 mg/dL
same,TG,9 h,78.8 mg/dL
same,TP,9 h,5.5 g/dL
same,gamma-GTP,9 h,1.2 IU/L
same,TERMINAL_BW,24 h,238.2 g
same,Bas,24 h,0.6%
same,Eos,24 h,1.2%
same,Fbg,24 h,224.8 mg/dL
same,Lym,24 h,78.6%
same,MCH,24 h,21.1 pg
same,MCHC,24 h,33.9%
same,MCV,24 h,62.4 fL
same,Mono,24 h,2.6%
same,Neu,24 h,16.4%
same,PT,24 h,11.7 s
same,RBC,24 h,646.8 x10_4/ul
same,Ret,24 h,6.4%
same,KIDNEY_L,24 h,1 g
same,KIDNEY_R,24 h,1 g
same,KIDNEY_TOTAL,24 h,2 g
same,ALP,24 h,981.2 IU/L
same,ALT,24 h,32.6 IU/L
same,AST,24 h,62.6 IU/L
same,CRE,24 h,0.4 mg/dL
same,DBIL,24 h,0.098 mg/dL
same,IP,24 h,7.5 mg/dL
same,K,24 h,3.9 meq/L
same,LDH,24 h,161 IU/L
same,Na,24 h,142.4 meq/L
same,RALB,24 h,3.4 g/dL
same,TBIL,24 h,0.2 mg/dL
same,TC,24 h,74.2 mg/dL
same,TG,24 h,125.4 mg/dL
same,TP,24 h,5.5 g/dL

# — ChEMBL document CHEMBL3885861, “Open TG-GATES”
